Measured values published in US20130109680A1, “METHODS AND COMPOSITIONS FOR AMELIORATING THIAZIDE INDUCED […]” (University of Florida Research Foundation, Inc., priority 2007, published 2013).
Where “and” joins values, the source holds several entries; their conditions need not be identical. Equal values may be shown once. Marks after values point to notes of the source that are not given here.

Legend:
Format in all cases: in vivo, Sprague Dawley rats
[1] = test system: rats on 60% fructose diet; assay: Tail cuff systolic blood pressure measurement in fructose-fed rats; details: for systolic blood pressure (SBP): conscious rats, mean±SD
Experimental: (§1) Male Sprague Dawley rats (150-200 g, Charles River Inc., Wilmington, Mass.) were placed on a standard natural ingredient diet (catalog #7912, Harlan, Wis.) for a five day run-in period with collection of basal blood and urine. Rats were then divided into 5 groups with similar body weight and baseline blood chemistry (n=8 each group).
(§2) Group 3 (F+HCTZ): 60% fructose diet plus hydrochlorothiazide (HCTZ, Sigma-Aldrich, St. Louis, Mo.) 10 mg/kg/day dissolved in drinking water
(§3) We monitored serum K^+ and increased the concentration of KCL at week 5 (1.5% KCL), week 15 (1.75% KCL) and week 17 (2% KCL) to maintain normal k^+ level in serum through the whole study.
(§4) Group 5 (F+HCTZ+Allopurinol): 60% fructose diet plus the same dose of HCTZ and allopurinol 150 mg/L dissolved in drinking water
Systolic blood pressure (SBP) measurement was performed in conscious rats with the use of a tail-cuff sphygmomanometer (Visitech BP2000, Visitech Systems, Apex, N.C.) at weeks 4 and 16. After three time periods of preconditioning, rats were placed in prewarmed chambers (37° C.) for 10-15 min, the pressure and pulse were measured by an automatic tail-cuff inflater and a built-in transducer. The mean of three stable BP readings was used.

[2] = test system: rats on 60% fructose diet; assay: Biochemical measurements of serum and urine in fructose-fed rats; details: for serum uric acid (change in words): FIG. 2A; for serum uric acid (change in words) / serum triglycerides (change in words): weeks 4, 14, 20; for serum triglycerides (change in words): FIG. 2D
Experimental: as §1, §2, §3, §4
(§5) Rats were weighed weekly and housed separately in metabolic cages for overnight collection of urine (over 18 hrs) with free access to water and no food on weeks 4, 14 and 20. Four hour fasting serum was also collected from the tail vein within the same week of urine collection. At the end of week 20, rats were sacrificed.
Serum and urine K^+ concentrations were determined with the atomic absorption spectrophotometer (Perkin-Elmer 306). Routine chemistries (including serum glucose, cholesterol, triglycerides, blood urea nitrogen (BUN), sodium, chloride, bicarbonate (HCO3^−) and magnesium (Mg^++); serum and urine creatinine (Cr), uric acid and urine protein concentration) were measured using an autoanalyzer (VetAce, Alfa Wassermann, Inc., West Caldwell, N.J.).

[3] = test system: rats on 60% fructose diet; assay: Measurement of urinary nitric oxide (nitrate/nitrite); details: FIG. 5
Excerpt: as §1, §5
Urine was determined NO by using the nitrate/nitrite colorimetric assay kit (Cayman Chemical Company, MI). The kit measures NO reaction products, total nitrate and nitrite concentrations with a modified two-step Griess reaction.

[4] = test system: rats on 60% fructose diet; assay: Serum insulin and Quantitative Insulin Sensitivity Check Index (QUICKI); details: for QUICKI / insulin sensitivity (in words): week 14, FIG. 3
Experimental: as §1
Fasting serum glucose and insulin were obtained at week 14 and used to calculate the QUICKI value. Serum insulin was determined by using the rat insulin ELISA kit (Crystal Chem, Chicago, Ill.) which can detect serum insulin in the range of 156-10,000 pg/ml and has the 3.5% intra-assay and 6.3% inter-assay precision. QUICKI is a mathematical model based on log-transformed fasting plasma glucose and insulin values by equal 1/(log [glucose]+log [insulin]). QUICKI predicts insulin sensitivity with lower values representing more insulin resistance.

[5] = test system: rats on 60% fructose diet; assay: Insulin tolerance test (ITT); details: week 18, 0.75 U/kg insulin i.p., FIG. 4
Experimental: as §1
At week 18, the ITT was performed on animals fasted for 16 hours by administering 0.75 U/kg recombinant human insulin (Novolin; Novo Nordisk, Princeton, N.J.) via intraperitoneal injection. Blood glucose was determined on tail blood via hand-held blood glucose monitor (OneTouch, Johnson & Johnson) at 5 points; before insulin injection, and at 15, 30, 45 and 60 minutes after insulin injection.

NS(=O)(=O)c1cc2c(cc1Cl)NCNS2(=O)=O [F+HCTZ, hydrochlorothiazide]
effect on systolic blood pressure (in words) ([1]; FIG. 1, weeks 4 and 16): reduced the systolic blood pressure
systolic blood pressure (SBP) ([1]; week 4, tail cuff): 129±4.6 mmHg
systolic blood pressure (SBP) ([1]; week 16, tail cuff): 136±3.7 mmHg
serum uric acid (change in words) [2]: greater hyperuricemia
serum uric acid (change in words) ([2]; listed as Hydrochlorothiazide): more hyperuricemia
serum glucose (change in words) ([2]; FIG. 2B, weeks 14 and 20): hyperglycemia
serum cholesterol (change in words) ([2]; FIG. 2C): numerical higher
serum triglycerides (change in words) [2]: higher in the F+HCTZ group but did not reach statistical significance
serum triglycerides (change in words) ([2]; listed as hydrochlorothiazide): numerical higher
Uric acid clearance ([2]; Table 1, mean±SD): 0.08 ± 0.03 ^& ml/min
Urine protein/Cr ([2]; Table 1, mean±SD): 2.53 ± 2.3
Urine uric acid ([2]; Table 1, mean±SD): 2.93 ± 1.0 ^& mg/day
Cr ([2]; Table 1, serum, week 20, mean±SD): 0.46 ± 0.11 mg/dL
BUN ([2]; rat, in vivo): 26.6 ± 14 *^, & mg/dL
Serum K^+ ([2]; rat, in vivo): 4.0 ± 0.1 *^, &, # mEq/L
Serum Mg^++ ([2]; rat, in vivo): 1.15 ± 0.1*^, & mEq/L
serum HCO3^− ([2]; rat, in vivo): 24.7±1.1 mEq/L
serum K^+ (in words) ([2]; rat, in vivo): significantly lower
serum uric acid ([2]; week 14 (implied by sentence), mean±SD): 2.69 ± 0.47 mg/dL
serum glucose ([2]; week 14, 4 h fasting serum, mean±SD): 176 ± 13.3 mg/dL
serum triglycerides ([2]; week 14, mean±SD): 492 ± 154 mg/dL
serum glucose ([2]; week 20, 4 h fasting serum, mean±SD): 186 ± 21.9 mg/dL and 186 ± 22 mg/dL
serum glucose ([2]; week 20, mean±SD): 186 ± 22 mg/dL
serum triglycerides ([2]; week 20, mean±SD): 489 ± 178 mg/dL
serum uric acid ([2]; week 20, mean±SD): 2.76 ± 0.59 mg/dL
urine nitrate/nitrite excretion (in words) [3]: even lower nitrite excretion
urine nitrate/nitrite excretion (in words) ([3]; listed as Hydrochlorothiazide): more reduction of urine nitrate and nitrite
QUICKI / insulin sensitivity (in words) ([4]; listed as HCTZ): significantly lower
QUICKI / insulin sensitivity (in words) ([4]; listed as hydrochlorothiazide): significant lower insulin sensitivity
serum insulin concentration ([4]; week 14, rat insulin ELISA, mean±SD): 3449 ± 1200 pg/mL
blood glucose response to intraperitoneal insulin in ITT (in words) [5]: maintained elevated serum glucose in response to insulin
blood glucose response to intraperitoneal insulin in ITT (in words) ([5]; listed as hydrochlorothiazide): no change of blood glucose
